From PubChem BioAssay AID248 (DTP/NCI, 2004)
Several values for one entry are separate records, joined by “and”; a condition that tells them apart may be missing. Equal entries are not always repeated. Inconclusive results and toxic doses are left out. No stated cut-off is given here; in the data, active means T/C of 150% or more; inactive means T/C below 125%.

System: L1210 leukemia ip in BDF1 mice, survival T/C
Assay: NCI In Vivo Anticancer Drug Screen. Data for tumor model L1210 Leukemia (intraperitoneal) in B6D2F1 (BDF1) mice
Settings: endpoint: mean survival time, higher = longer survival
Summary of the method: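 Survival endpoint. Drug-treated group vs vehicle group, expressed as T divided by C. Tumor passaged by transplantation.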

[1] = dose: 100.0 mg/kg/injection, schedule: Q01DX009 (ip), vehicle: saline with Tween-80
[2] = dose: 200.0 mg/kg/injection, schedule: Q01DX009 (ip), vehicle: saline with Tween-80
[3] = dose: 200.0 mg/kg/injection, schedule: Q04DX003 (ip), vehicle: saline with Tween-80
[4] = dose: 400.0 mg/kg/injection, schedule: Q01DX009 (ip), vehicle: saline with Tween-80
[5] = dose: 400.0 mg/kg/injection, schedule: Q04DX003 (ip), vehicle: saline with Tween-80
[6] = dose: 100.0 mg/kg/injection, schedule: Q04DX003 (ip), vehicle: Klucel (hydroxypropylcellulose) (HPC)
[7] = dose: 200.0 mg/kg/injection, schedule: Q04DX003 (ip), vehicle: Klucel (hydroxypropylcellulose) (HPC)
[8] = dose: 100.0 mg/kg/injection, schedule: Q04DX002 (ip), vehicle: Klucel (hydroxypropylcellulose) (HPC)
[9] = dose: 200.0 mg/kg/injection, schedule: Q04DX002 (ip), vehicle: Klucel (hydroxypropylcellulose) (HPC)
[10] = dose: 400.0 mg/kg/injection, schedule: Q04DX002 (ip), vehicle: Klucel (hydroxypropylcellulose) (HPC)
[11] = dose: 200.0 mg/kg/injection, schedule: Q01DX001 (ip), vehicle: saline
[12] = dose: 400.0 mg/kg/injection, schedule: Q01DX001 (ip), vehicle: saline
[13] = dose: 100.0 mg/kg/injection, schedule: Q04DX003 (ip), vehicle: saline with Tween-80
[14] = dose: 100.0 mg/kg/injection, schedule: Q01DX001 (ip), vehicle: saline
[15] = dose: 100.0 mg/kg/injection, schedule: Q01DX009 (ip), vehicle: Klucel (hydroxypropylcellulose) (HPC)
[16] = dose: 200.0 mg/kg/injection, schedule: Q01DX009 (ip), vehicle: Klucel (hydroxypropylcellulose) (HPC)
[17] = dose: 400.0 mg/kg/injection, schedule: Q01DX009 (ip), vehicle: Klucel (hydroxypropylcellulose) (HPC)
[18] = dose: 400.0 mg/kg/injection, schedule: Q04DX003 (ip), vehicle: Klucel (hydroxypropylcellulose) (HPC)
[19] = dose: 100.0 mg/kg/injection, schedule: Q01DX001 (ip), vehicle: Klucel (hydroxypropylcellulose) (HPC)
[20] = dose: 200.0 mg/kg/injection, schedule: Q01DX001 (ip), vehicle: Klucel (hydroxypropylcellulose) (HPC)
[21] = dose: 400.0 mg/kg/injection, schedule: Q01DX001 (ip), vehicle: Klucel (hydroxypropylcellulose) (HPC)

Measured: T/C

ClC1(Cl)Cc2ccccc21
inactive: [1] 97 % of control | dose: 177.0 mg/kg/injection, schedule: Q04DX003 (ip), vehicle: saline with Tween-80 98 % of control | [2] 96 % of control | [3] 101 % of control | dose: 266.0 mg/kg/injection, schedule: Q04DX003 (ip), vehicle: saline with Tween-80 98 % of control | [4] 96 % of control | [5] 98 % of control | dose: 600.0 mg/kg/injection, schedule: Q04DX003 (ip), vehicle: saline with Tween-80 110 % of control

CSc1ccc(OC(=O)Nc2ccccc2C)cc1C
inactive: dose: 100.0 mg/kg/injection, schedule: Q04DX002 (ip), vehicle: saline with Tween-80 100 % of control | dose: 200.0 mg/kg/injection, schedule: Q04DX002 (ip), vehicle: saline with Tween-80 100 % of control | dose: 400.0 mg/kg/injection, schedule: Q04DX002 (ip), vehicle: saline with Tween-80 118 % of control

CC(=O)NNc1ccccc1Cl
inactive: [6] 96 % of control | [7] 117 % of control

Nc1nccnc1C(=O)NOCc1ccccc1
inactive: dose: 25.0 mg/kg/injection, schedule: Q04DX002 (ip), vehicle: Klucel (hydroxypropylcellulose) (HPC) 90 % of control | dose: 50.0 mg/kg/injection, schedule: Q04DX002 (ip), vehicle: Klucel (hydroxypropylcellulose) (HPC) 90 % of control | [8] 101 % of control and 111 % of control | [9] 105 % of control | [10] 96 % of control and 97 % of control

Oc1ccc(Br)cc1/C=N/NC(=S)Nc1cccc2cccnc12
inactive: [11] 94 % of control | [12] 96 % of control

NC(=O)C1=C(N)CCC1
inactive: [13] 100 % of control | [3] 95 % of control | [5] 97 % of control

O=C(N/N=C/c1ccc(O)cc1O)c1ccc(O)cc1
inactive: [8] 92 % of control | [9] 103 % of control | [10] 103 % of control

COc1ccc2c3c1OC1CC(O)C=CC31CCN(C)C2 (configuration not stated)
inactive: dose: 2.5 mg/kg/injection, schedule: Q01DX009 (ip), vehicle: saline 102 % of control | dose: 2.9 mg/kg/injection, schedule: Q01DX Z (ip), vehicle: saline 105 % of control | dose: 5.0 mg/kg/injection, schedule: Q01DX009 (ip), vehicle: saline 107 % of control

NNC(=O)C(=O)NN
inactive: [8] 102 % of control | [9] 98 % of control | [10] 93 % of control

O=C(N/C=C/NC(=O)OC(=O)C(Cl)(Cl)Cl)OC(=O)C(Cl)(Cl)Cl
inactive: dose: 100.0 mg/kg/injection, schedule: Q04DX003 (ip), vehicle: saline 92 % of control | dose: 200.0 mg/kg/injection, schedule: Q04DX003 (ip), vehicle: saline 88 % of control | dose: 400.0 mg/kg/injection, schedule: Q04DX003 (ip), vehicle: saline 93 % of control

CN(CSc1ccc([N+](=O)[O-])cc1)CSc1ccc([N+](=O)[O-])cc1
inactive: [14] 94 % of control | [11] 88 % of control | [12] 94 % of control

CCOC(=O)C(C(C)=O)C(CCc1cc(OC)ccc1OC)C(C(C)=O)C(=O)OCC (configuration not stated)
inactive: [14] 109 % of control | [11] 101 % of control | [12] 97 % of control

NC(N)=N/N=C/N1CCCCC1
inactive: dose: 60.0 mg/kg/injection, schedule: Q01DX Z (oral), vehicle: methylcellulose (MC) 90 % of control | dose: 120.0 mg/kg/injection, schedule: Q01DX Z (oral), vehicle: methylcellulose (MC) 100 % of control | dose: 240.0 mg/kg/injection, schedule: Q01DX Z (ip), vehicle: methylcellulose (MC) 110 % of control | dose: 240.0 mg/kg/injection, schedule: Q01DX Z (oral), vehicle: methylcellulose (MC) 89 % of control | dose: 300.0 mg/kg/injection, schedule: Q01DX Z (oral), vehicle: methylcellulose (MC) 100 % of control | dose: 360.0 mg/kg/injection, schedule: Q01DX Z (ip), vehicle: methylcellulose (MC) 103 % of control | dose: 400.0 mg/kg/injection, schedule: Q01DX Z (oral), vehicle: methylcellulose (MC) 105 % of control | dose: 480.0 mg/kg/injection, schedule: Q01DX Z (ip), vehicle: methylcellulose (MC) 107 % of control | dose: 480.0 mg/kg/injection, schedule: Q01DX Z (oral), vehicle: methylcellulose (MC) 101 % of control | dose: 720.0 mg/kg/injection, schedule: Q01DX Z (ip), vehicle: methylcellulose (MC) 95 % of control

CCCCCCCCCC1(C)OCC(COC(N)=O)O1 (configuration not stated)
inactive: dose: 25.0 mg/kg/injection, schedule: Q01DX009 (ip), vehicle: Klucel (hydroxypropylcellulose) (HPC) 104 % of control | dose: 25.0 mg/kg/injection, schedule: Q04DX003 (ip), vehicle: Klucel (hydroxypropylcellulose) (HPC) 98 % of control | dose: 50.0 mg/kg/injection, schedule: Q01DX009 (ip), vehicle: Klucel (hydroxypropylcellulose) (HPC) 93 % of control | dose: 50.0 mg/kg/injection, schedule: Q04DX003 (ip), vehicle: Klucel (hydroxypropylcellulose) (HPC) 96 % of control | [15] 93 % of control | [6] 96 % of control | [16] 98 % of control | [7] 98 % of control | [17] 102 % of control | [18] 98 % of control

O=c1c([N+](=O)[O-])cc([N+](=O)[O-])cn1O
inactive: [6] 100 % of control | [7] 100 % of control | [18] 90 % of control

CC12CCC3c4ccc(O)c(N)c4CCC3C1CCC2=O (configuration not stated)
inactive: [19] 102 % of control | [20] 102 % of control | [21] 101 % of control

O=C1Nc2ccc(Br)cc2C1=Nc1ccc(Cl)cc1
inactive: [8] 95 % of control | [9] 92 % of control | [10] 89 % of control

CC(C)(C)NC(=O)C1C2CC3OC(=O)C1C3C2 (configuration not stated)
inactive: [13] 98 % of control | [3] 101 % of control and 90 % of control | [5] 101 % of control and 98 % of control

COC1CC(N=[N+]=[N-])C(OC(=O)c2ccccc2)C(C)O1 (configuration not stated)
inactive: [1] 110 % of control | [13] 96 % of control | [2] 102 % of control | [3] 100 % of control | [4] 98 % of control | [5] 102 % of control

CCCCN(CCCC)c1ccc(/C=C/c2ccncc2)cc1
inactive: [19] 95 % of control | [15] 93 % of control | [20] 101 % of control | [16] 101 % of control | [21] 96 % of control | [17] 90 % of control

COc1ccc(-c2cc(=O)c3c(O)c(OC)c(O)cc3o2)cc1
inactive: dose: 20.0 mg/kg/injection, schedule: Q01DX Z (ip), vehicle: saline 101 % of control | dose: 40.0 mg/kg/injection, schedule: Q01DX Z (ip), vehicle: saline 108 % of control | dose: 80.0 mg/kg/injection, schedule: Q01DX Z (ip), vehicle: saline 95 % of control

CCCCCC(/C=N\NC(=O)CCCC(=O)N/N=C/C(=C/c1ccccc1)CCCCC)=C\c1ccccc1
inactive: dose: 50.0 mg/kg/injection, schedule: Q01DX001 (ip), vehicle: saline 89 % of control | [14] 95 % of control | [11] 97 % of control | [12] 89 % of control
